Source: patent publication US12590125B2, “Peptide inhibitors for the inhibition of HIV capsid” (THE CURATORS OF THE UNIVERSITY OF MISSOURI, priority 2019, dated 2026)
Like-named read-outs stand apart in the source and are kept apart here. Residues, ends and D or L forms follow the SMILES beside them.

Assays:
HIV-1 = details: PBMCs, 23 HIV-1 clinical isolates from different subtypes, cited from earlier work
HIV [1] = details: MT-4 cells; read-out: EC50, anti-HIV activity; cited from earlier work
CA-hexamers = details: read-out: binding affinity of CA-hexamers with PF74 by ITC; isothermal calorimetry, Bhattacharya et al., 2014; cited from earlier work
HIV [2] = details: MT-2 cells; cited from earlier work
HIV-1 CA-hexamers = HIV-1 CA-hexamers (Human immunodeficiency virus type 1 group M subtype B, UniProt P12493); assay: biochemical; type: binding
Protocol: During the MST experiment, a temperature gradient is induced by an infrared laser. The directed movement of molecules through the temperature gradient is detected and quantified using covalently attached fluorophore.
Fluorescent labeling of CA with Alexa Fluor 647 analog NT647 was performed according to the manufacturer's instructions (MO-L004 Monolith Protein Labeling Kit; NanoTemper Technologies GmbH, Munich, Germany). 20 μM protein was incubated overnight with 3 molar excess of dye at room temperature in a conjugation buffer provided with the labeling kit. The unreacted dye was removed by filtration through a gravity flow column provided with the kit. The elution fractions were collected in 2×MST buffer (100 mM MOPS, pH 7.0, 200 mM NaCl, and 0.2% pluronic F-127). Fluorescence intensity of each fraction was evaluated by MST (Monolith NT.115, NanoTemper Technologies GmbH, Munich, Germany), and fractions containing labelled protein were pooled. Protein concentration was determined by NANODROP (Thermo Scientific, Waltham, MA) spectrophotometer. Aliquots were stored at −80° C. until use. […] The data were analyzed using MO. Affinity software (version 2.3) (NanoTempet Technologies, CA) by fitting the data point to a quadratic equation (Equation 1) and plotting by PRISM (Version 6.0) (GraphPad Inc. La Jolla, CA).

SMILES: CC(C)(C#Cc1ccc(-c2ccc(Cl)c3c(NS(C)(=O)=O)nn(CC(F)(F)F)c23)c([C@H](Cc2cc(F)cc(F)c2)NC(=O)Cn2nc(C(F)(F)F)c3c2C(F)(F)[C@@H]2C[C@H]32)n1)S(C)(=O)=O [GS-6207]
- EC50 (HIV-1; read-out: mean EC50): 0.05 nM
- EC50 (HIV-1; read-out: range of EC50 over clinical isolates): 0.02 to 0.16 nM
- EC50 (HIV [1]): 0.1 nM

SMILES: Cc1[nH]c2ccccc2c1CC(=O)N[C@@H](Cc1ccccc1)C(=O)N(C)c1ccccc1 [PF74]
- Kd (CA-hexamers): 262 nM
- EC50 (HIV [2]): 570 nM

SMILES: CC(C)[C@@H]1NC(=O)CNC(=O)[C@H](CO)NC(=O)CNC(=O)[C@@H]2CCCN2C(=O)[C@H](Cc2ccccc2)NC(=O)[C@H](CC(N)=O)NC(=O)[C@H](C(C)C)NC(=O)[C@@H]2CCCN2C(=O)CNC(=O)[C@H](Cc2ccccc2)NC(=O)[C@H]([C@@H](C)O)NC(=O)[C@H](Cc2ccccc2)NC1=O [Pep-2-cyclic] (cyclo(FGPVNFPGSGVFT))
- Kd (HIV-1 CA-hexamers): 32 ± 3 nM
- fold better CA binding affinity than PF74 (HIV-1 CA-hexamers; Pep-2-cyclic vs PF74, MST): ~7 fold
